Structures are written as SMILES. Marks after values point to notes of the source that are not given here.

The test concerns wound in diabetes mouse (db/db mouse) model. The test can be described thus: Effect of compound A on wound in diabetes mouse (db/db mouse) model. The class given is in vivo. The settings on record: for wound area ratio: 0.05 mL once a day, mean±standard error, n=8. The procedure: The compound A was weighed in the required amount, and polyethylene glycol 400 (PEG400) was added to the compound to prepare liquids having final concentrations of the compound of 0.001, 0.01, and 0.1 w/v %. In order to prepare ointments having final concentrations of the compound of 0.0005, 0.005, and 0.05 w/w %, PEG4000 melted by warming at 65° C. was added to the liquids, and the liquids were stirred until they solidified at room temperature to prepare ointments having concentrations of the compound of 0.0005, 0.005, and 0.05 w/w %.
Diabetes mice (db/db mice) were anesthetized with isoflurane, and a 1.5-cm square of skin including the back median line as the center axis of each mouse was removed with ophthalmic scissors. A polyurethane film was stuck so as to cover the skin-lacking wound part and surrounding parts to prepare the wound.
The administration was performed once a day at a volume of 0.05 mL. As for the administration method, the administration was performed with a disposable polypropylene injection syringe attached to a 23G needle by inserting the needle into a gap between the wound and the polyurethane film covering the wound part. On the day when the wound was produced and the days when the wound area was measured, the compound was administered to the wound part by using a disposable polypropylene injection syringe attached to a 23G needle before sticking the polyurethane film.
On days 14 to 20 of the administration (the day on which the administration was started is day 1 of the administration), the administration was performed by peeling off the polyurethane film under isoflurane anesthesia, cleaning the wound with absorbent cotton containing physiological saline, administering the ointment with a disposable polypropylene injection syringe, and then the polyurethane film was stuck on again.
On days 1, 4, 8, 12, 16, and 21 of the administration, the wound part was traced. That is, after the polyurethane film was removed (in the case of the day 1 of the administration, before the administration and sticking of the film), a plastic sheet was placed on the wound part, the contour of the wound part was traced on the plastic sheet (tracing was performed by using a felt pen so that the external periphery of the wound part would coincide with the internal periphery of the line drawn with the felt pen), and a copy of the sheet on which tracing was performed was used as the source of raw data. The area of the inside of the traced line (mm^2) was measured once using an area-line meter (PLANIX EX, Tamaya Technics Inc.) on the copy of the sheet on which tracing was performed. The results are expressed as ratio of change (%) calculated from the wound area (mm^2) of each measurement day, and the wound area (mm^2) of the day 1 of the wound creation (before administration).
Significant difference test was performed by using a commercial statistical analysis program (SAS System, SAS Institute Japan, Inc.). Statistical significance levels lower than 5% were considered to be significant, and the results are indicated as those of the level lower than 5% (*; p<0.05) and those of the level lower than 1% (**; p<0.01).
As for the test method, the multiple comparison of Dunnett's method was used for the comparison between the vehicle-administered group and compound A-administered groups.

Regarding `Cc1cc2c(CCc3sc(-c4ccc(C(F)(F)F)cc4)nc3C(C)C)noc2cc1OCC(=O)O` [compound A, [3-[2-[4-isopropyl-2-(4-trifluoromethyl)phenyl-5-thiazolyl]ethyl]-5-methyl-1,2-benzisoxazol-6-yl]oxyacetic acid], the wound area ratio reads like this: (0.0005% compound A ointment, day 1 of administration) 100.0 ± 0.0%; (0.0005% compound A ointment, day 4 of administration) 96.9 ± 1.7%; (0.0005% compound A ointment, day 8 of administration) 95.2 ± 2.4%; (0.0005% compound A ointment, day 12 of administration) 82.9 ± 2.7%; (0.0005% compound A ointment, day 16 of administration) 73.4 ± 2.7%; (0.0005% compound A ointment, day 21 of administration) 67.6 ± 3.8%. Further, the wound area ratio reads like this: (0.005% compound A ointment, day 1 of administration) 100.0 ± 0.0%; (0.005% compound A ointment, day 4 of administration) 97.2 ± 2.4%; (0.005% compound A ointment, day 8 of administration) 95.0 ± 2.2%; (0.005% compound A ointment, day 12 of administration) 84.1 ± 1.6%; (0.005% compound A ointment, day 16 of administration) 72.1 ± 1.7%; (0.005% compound A ointment, day 21 of administration) 69.1 ± 3.0%. Further, the wound area ratio (0.05% compound A ointment, day 1 of administration) is reported as 100.0 ± 0.0%; the wound area ratio (0.05% compound A ointment, day 4 of administration) was 96.0 ± 2.1%; the wound area ratio (0.05% compound A ointment, day 8 of administration) is reported as 90.3 ± 2.6* %; the wound area ratio (0.05% compound A ointment, day 12 of administration) is reported as 78.6 ± 1.6** %; the wound area ratio (0.05% compound A ointment, day 16 of administration) came to 69.2 ± 2.1%; the wound area ratio (0.05% compound A ointment, day 21 of administration) came out at 65.5 ± 2.1%. Where the note is “0.05% compound A-administered group, day 8 and day 12 of the administration”, the “wound area compared with the vehicle-administered group” value is recorded as “significantly smaller”.

The values are drawn from patent US20190255022A1, “WOUND-HEALING AGENT” (NIPPON CHEMIPHAR CO., LTD., priority 2016, published 2019).
